Experimental data from article PMC12562379, “Facile Synthesis of N-vinylindoles via Knoevenagel Condensation: Molecular Features and Biological Activities” (International Journal of Molecular Sciences, 2025).
≈ marks a conversion by molar mass, not a printed value.

Legend:
[1] = system: S. aureus MRSA 12673; experiment: Microbroth dilution assay; format: cell-based; conditions: Staphylococcus aureus, S. aureus MRSA 12673
[2] = molecular target: T1, AGE2-BSA/sRAGE interaction (Homo sapiens, UniProt Q15109); experiment: ELISA AGE2-BSA/sRAGE inhibitory screening; format: binding
T1 construct: purchased Creative BioMart
Experimental: The in vitro inhibitor screening of AGE2 (glyceraldehyde-modified AGE)-sRAGE interaction (soluble RAGE) was performed using a 96-well AGE-BSA-coated plate (Creative BioMart® ELISA kit, Shirley, NY, USA), according to the manufacturer’s instructions. 100 UA/mL soluble RAGE (sRAGE) was incubated with 100 μM of the tested compounds or 0.05% DMSO as a negative control on an AGE2-BSA-coated plate at room temperature for 60 min, shaking at 300 rpm on an orbital microplate shaker. After incubation, the wells were washed 4 times with wash buffer and horseradish peroxidase (HRP)-labeled anti-RAGE antibody was added and the plate was further incubated at room temperature for 60 min, shaking at 300 rpm on an orbital microplate shaker. After incubation, the wells were washed 4 times with wash buffer and the Substrate Reagent was added to each well. After an incubation at room temperature for 5 min, the HRP-labeled antibody sRAGE-AGE complex was then detected by measuring the absorbance at 450 nm using the microplate reader Varioskan (Thermo Fischer Scientific). These experiments were repeated two times.

[3] = system: SKOV-3 cells; experiment: Cell cycle assay (Muse Cell Analyzer); format: cell-based, human; conditions: SKOV-3, 48 h
Experimental: The SKOV-3 cells (5 × 10^5 cells/well) were seeded and incubated with compound 2i at concentrations of 2, 5, 10, 15, 30, and 60 µg/mL for 48 h. After treatment, Muse Cell Cycle Assay Kit and Muse Cell Analyzer (Merck Millipore, Burlington, MA, USA) were used to analyze the stained cells, according to the manufacturer’s instruction. The results are shown as percentage of the cells in each phase of cell cycle: subG0, G0/G1, S, and G2/M. The experiment was repeated in two independent repeats (in three repetitions).

T1 sequence (Q15109 23-342 limits assumed): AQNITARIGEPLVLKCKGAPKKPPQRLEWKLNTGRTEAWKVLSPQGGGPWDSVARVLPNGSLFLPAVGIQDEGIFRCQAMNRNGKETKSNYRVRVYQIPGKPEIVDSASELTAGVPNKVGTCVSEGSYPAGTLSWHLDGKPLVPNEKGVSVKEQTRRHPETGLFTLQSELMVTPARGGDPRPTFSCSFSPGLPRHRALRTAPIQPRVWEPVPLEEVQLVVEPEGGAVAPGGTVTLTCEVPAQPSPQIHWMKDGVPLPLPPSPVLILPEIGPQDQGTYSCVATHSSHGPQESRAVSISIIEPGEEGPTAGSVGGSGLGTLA

C(=C(\C1=NCCN1)n1ccc2ccccc21)/c1ccc2ccccc2c1 [Compound 2i, (Z)-1-[1-(4,5-dihydro-1H-imidazol-2-yl)-2-(naphthalen-2-yl)vinyl]-1H-indole]
MBC [1]: 30 µg/mL (≈ 88.9 µM) | MIC ([1]; read-out: MIC): 30 µg/mL (≈ 88.9 µM) | inhibition at 100 µM [2]: 49.4% | cells in subG0 phase ([3]; 2 µg/mL): 28.10 ± 4.49% | cells in subG0 phase ([3]; 5 µg/mL): 49.00 ± 0.85% | cells in subG0 phase ([3]; 10 µg/mL): 82.73 ± 1.33% | cells in subG0 phase ([3]; 15 µg/mL): 91.67 ± 0.57% | cells in subG0 phase ([3]; 30 µg/mL): 95.30 ± 1.67% | cells in subG0 phase ([3]; 60 µg/mL): 99.83 ± 0.15% | cell cycle arrest ([3]; 2–60 µg/mL, all concentrations): strongly induced cell cycle arrest in subG0 phase
